Earlier results in patent publication US20160206617A1, “COMPOSITIONS AND THERAPEUTIC METHODS FOR ACCELERATED PLAQUE REGRESSION” (RESVERLOGIX CORP., priority 2013, published 2016).
Where two headings read alike, the source gives them in different places.

Columns and labels:
[1] = tested on: ApoA-I; conditions: in vitro and in vivo
[2] = tested on: atherosclerosis; conditions: REVERSAL; 2 years; pravastatin 40 mg daily, atorvastatin 80 mg daily
[3] = tested on: atherosclerosis; conditions: SATURN; 2 years; rosuvastatin 40 mg daily, atorvastatin 80 mg daily
[4] = tested on: atherosclerosis

SMILES | effect on plasma levels of ApoA-I and HDL [1] | median change in PAV [2] | median change in PAV [3] | median change PAV ([4]; ASTEROID, 2 years, rosuvastatin 40 mg daily, all patients) | median decrease in PAV from baseline ([4]; ASTEROID, subgroup with average HDL-C during treatment less than 40 mg/dL) | PAV decrease (median change) ([4]; FIG. 8, rosuvastatin 40 mg without RVX-208, after 104 weeks, below median HDL)
COc1cc(OC)c2c(=O)[nH]c(-c3cc(C)c(OCCO)c(C)c3)nc2c1 [RVX-208, 2-(4-(2-hydroxyethoxy)-3,5-dimethylphenyl)-5,7-dimethoxyquinazolin-4(3H)-one] | increase plasma levels of ApoA-I and HDL |  |  |  |  | 
CC(C)c1c(C(=O)Nc2ccccc2)c(-c2ccccc2)c(-c2ccc(F)cc2)n1CC[C@@H](O)C[C@@H](O)CC(=O)O [atorvastatin] |  | +0.2% | −0.99% |  |  | 
CC(C)c1nc(N(C)S(C)(=O)=O)nc(-c2ccc(F)cc2)c1/C=C/[C@@H](O)C[C@@H](O)CC(=O)O [rosuvastatin, (3R,5S,6E)-7-[4-(4-fluorophenyl)-2-(N-methylmethanesulfonamido)-6-(propan-2-yl)pyrimidin-5-yl]-3,5-dihydroxyhept-6-enoic acid] |  |  | −1.22% | −0.79% | −1.3% | 1.30%
